In US20220056052A1, “QUINAZOLINE DERIVATIVES AS ECTONUCLEOTIDE PYROPHOSPHATASE PHOSPHODIESTERASE 1 INHIBITORS” (Riboscience LLC, priority 2018, published 2022):
pKi: −log10 of the molar value. Structures can show the parent of a compound that is named as a salt.

Key:
HGS tumor model = assay: Anti-tumor activity in HGS tumor model; format: in vivo; conditions: animals treated with 20/kg of compound, day 42 after inoculation (vehicle 645)
From the text: […]

ENPP1 [1] = target: T1, ENPP1 (Homo sapiens, UniProt P22413); assay: Measurement of 2′3′-cGAMP hydrolysis by ENPP1 (AMP-Glo)
T1 sequence (P22413 1-925): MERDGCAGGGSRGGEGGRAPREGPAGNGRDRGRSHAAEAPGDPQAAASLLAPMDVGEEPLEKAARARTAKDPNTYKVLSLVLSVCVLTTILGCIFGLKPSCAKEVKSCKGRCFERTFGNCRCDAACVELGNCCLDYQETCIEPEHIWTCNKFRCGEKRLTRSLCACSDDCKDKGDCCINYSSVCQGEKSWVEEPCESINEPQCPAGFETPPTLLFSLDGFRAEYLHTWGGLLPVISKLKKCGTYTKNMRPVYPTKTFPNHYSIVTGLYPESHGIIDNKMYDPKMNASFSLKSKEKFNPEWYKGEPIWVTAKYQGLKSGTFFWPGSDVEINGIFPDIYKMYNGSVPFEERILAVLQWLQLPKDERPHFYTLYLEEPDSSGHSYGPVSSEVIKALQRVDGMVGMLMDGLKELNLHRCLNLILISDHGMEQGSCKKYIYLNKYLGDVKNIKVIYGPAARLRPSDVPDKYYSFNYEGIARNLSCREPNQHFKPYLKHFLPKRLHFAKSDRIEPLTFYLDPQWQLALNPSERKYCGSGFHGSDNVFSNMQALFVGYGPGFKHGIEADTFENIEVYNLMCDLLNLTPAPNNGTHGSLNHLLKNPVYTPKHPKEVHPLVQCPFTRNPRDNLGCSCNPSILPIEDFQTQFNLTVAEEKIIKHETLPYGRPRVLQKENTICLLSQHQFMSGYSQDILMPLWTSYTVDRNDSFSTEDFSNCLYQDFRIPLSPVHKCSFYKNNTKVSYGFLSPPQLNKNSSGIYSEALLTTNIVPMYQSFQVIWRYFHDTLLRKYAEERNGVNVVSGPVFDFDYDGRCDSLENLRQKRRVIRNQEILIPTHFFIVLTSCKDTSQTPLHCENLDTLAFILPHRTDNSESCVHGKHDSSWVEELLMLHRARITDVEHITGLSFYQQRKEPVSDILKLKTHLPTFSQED
Procedure: Then, 15 μl of the ENPP1/Compound incubation was transferred to the 200 μM 2′3′-cGAMP solution to initiate the reaction. The 30 μl mixture was incubated for 30 min at 25° C. […] After 30 min the reaction was stopped by heating at 90° C. for 3 min.
Third, now the Promega AMP-Glo kit was used to detect 5′-AMP production as a measurement of ENPP1 enzyme activity. To do this, 10 μl of the above mentioned 30 μl total reaction per sample was transferred into 384 well white solid assay plate for measurement of 5′-AMP production. For each well, 10 μl of AMP-Glo Reagent I was added, mixed well, and incubated for 1 hour at 25° C. At this time AMP detection solution was prepared and 20 μl was added per well, and the resulting solution was incubated for 1 hr at 25° C. Duplicates were run for each inhibitor concentration. Luminescence signal (relative luminescence units, RLU) was recorded using a PerkinElmer 2300 Enspire multimode plate reader.
IC50 values of compounds were determined by loading compound concentration data and percent inhibition values into GraphPad Prism (GraphPad Prism version 7.0 for Windows, GraphPad Software, La Jolla Calif. USA, www.graphpad.com) and conducted a Sigmoidal variable slope nonlinear regression fitting.

ENPP1 [2] = target: T1, ENPP1; assay: Measurement of pNP-TMP hydrolysis by ENPP1; format: biochemical; conditions: substrate pNP-TMP, (S) 500 μM, KM 232 μM; Ki from IC50 by Cheng-Prusoff
Procedure: p-Nitrophenyl thymidine 5′-monophosphate (pNP-TMP) is a synthesized substrate for ENPP1. The ENPP1 enzyme activity assay with pNP-TMP substrate was conducted as follows:
Incubation of ENPP1 with compounds was set at 25° C. for 10 min.
Absorbance at 405 nm was recorded immediately in kinetic mode by PerkinElmer 2300 Enspire multimode plate reader.
For each inhibitor, the specific ENPP1 activity was calculated using the following equation: ENPP1 activity (pmol/min/μg)=Adjusted Vmax (OD405 nm/min)×conversion factor (pmol/OD405 nm)/amount of enzyme (μg)
Adjusted Vmax=V0×(Km+(S))/(S). […] V0=(OD405 nm with ENPP1−OD405 nm ENPP1 blank)/minutes. OD405 nm was plotted, with blank subtracted, against time (minutes), the initial linear rate is V0. […]
The slope is the conversion factor. The percent ENPP1 activity for each sample was calculated using the following equation:
% enzyme activity=sample enzyme activity/MAX Activity×100%.
To determine the IC50 for each compound, compound concentration values and percent enzyme activity values were inserted into GraphPad Prism (GraphPad Prism version 7.0 for Windows, GraphPad Software, La Jolla Calif. USA, www.graphpad.com), and Prism's Transform analysis was used to convert the x-axis values (compound concentration) to logarithms. A sigmoidal variable slope nonlinear regression analysis was performed using the following equation: Y=Bottom+(Top−Bottom)/(1+10^((Log IC50^−X)*HillSlope)).

Row | Compound | tumor size (HGS tumor model) [mm3] | pKi (ENPP1 [1]) | pKi (ENPP1 [2])
1 | C=CC(=O)N1CCN(CCCn2c(=O)c(-c3c(Cl)c(OC)cc(OC)c3Cl)cc3cnc(NC)nc32)CC1 [8-(3-(4-acryloylpiperazin-1-yl)propyl)-6-(2,6-dichloro-3,5-dimethoxyphenyl)-2-(methylamino)pyrido(2,3-d)pyrimidin-7(8H)-one] | 55 | – | –
2 | COc1cc2ncnc(N3CCC(CCCB(O)O)CC3)c2cc1OC [Cpd. 3, (3-(1-(6,7-dimethoxyquinazolin-4-yl)piperidin-4-yl)propyl)boronic acid] | – | > 9.00 | –
3 | COc1cc2ncnc(N3CCC(CP(=O)(O)O)CC3)c2cc1OC [Cpd. 4, ((1-(6,7-dimethoxyquinazolin-4-yl)piperidin-4-yl)methyl)phosphonic acid] | – | > 8.30 | –
4 | COc1cc2ncnc(NCc3ccc(B(O)O)cc3)c2cc1OC [Cpd. 7, (4-(((6,7-dimethoxyquinazolin-4-yl)amino)methyl)phenyl)boronic acid formic acid salt] | – | > 9.00 | > 8.00
5 | COc1cc2ncnc(-c3ccc(COS(N)(=O)=O)cc3)c2cc1OC [Cpd. 17, 4-(6,7-dimethoxyquinazolin-4-yl)benzyl sulfamate] | – | – | > 9.00
6 | COc1cc2ncnc(N3CCC(CCCP(=O)(O)O)CC3)c2cc1OC [compound 6, (3-(1-(6,7-dimethoxyquinazolin-4-yl)piperidin-4-yl)propyl)phosphonic acid] | – | > 9.00 | > 8.30
7 | COc1cc2ncnc(NCc3ccc(B(O)O)cn3)c2cc1OC [compound 8, (6-(((6,7-dimethoxyquinazolin-4-yl)amino)methyl)pyridin-3-yl)boronic acid] | – | > 8.00 | –
8 | COc1cc2ncnc(Nc3ccc4c(c3)COB4O)c2cc1OC [compound 10, 5-((6,7-dimethoxyquinazolin-4-yl)amino)-1,3-dihydro-2,1-benzoxaborol-1-ol] | – | > 8.00 | –
9 | COc1cc2ncnc(NCc3ccc(B(O)O)cc3F)c2cc1OC [compound 11, 4-(((6,7-dimethoxyquinazolin-4-yl)amino)methyl)-3-fluorophenylboronic acid formic acid salt] | – | – | > 8.00
10 | COc1cc2ncnc(NCc3cccc(B(O)O)c3)c2cc1OC [compound 12, (3-(((6,7-dimethoxyquinazolin-4-yl)amino)methyl)phenyl)boronic acid] | – | > 9.00 | > 8.00
11 | COc1cc2ncnc(NCc3ccc(P(=O)(O)O)cc3)c2cc1OC [compound 13, (4-(((6,7-dimethoxyquinazolin-4-yl)amino)methyl)phenyl)phosphonic acid] | – | > 8.30 | –
12 | COc1cc2ncnc(NCC3CCN(S(N)(=O)=O)CC3)c2cc1OC [compound 18, 4-(((6,7-dimethoxyquinazolin-4-yl)amino)methyl)piperidine-1-sulfonamide] | – | > 8.30 | –
13 | COc1cc2ncnc(OCc3ccc(B(O)O)cc3)c2cc1OC [compound 19, (4-(((6,7-dimethoxyquinazolin-4-yl)oxy)methyl)phenyl)boronic acid] | – | > 9.00 | > 8.30
14 | COc1cc2ncnc(OCc3ccc4c(c3)B(O)OC4)c2cc1OC [compound 20, 6-(((6,7-dimethoxyquinazolin-4-yl)oxy)methyl)-3H-2,1-benzoxaborol-1-ol] | – | > 8.30 | –
15 | COc1cc2ncnc(OCc3ccc4c(c3)COB4O)c2cc1OC [compound 21, 5-(((6,7-dimethoxyquinazolin-4-yl)oxy)methyl)-3H-2,1-benzoxaborol-1-lol] | – | > 8.00 | –
16 | COc1cc2ncnc(NCc3c(F)cc(B(O)O)cc3F)c2cc1OC [compound 24, 4-(((6,7-dimethoxyquinazolin-4-yl)amino)methyl)-3,5-difluorophenylboronic acid hydrochloride] | – | – | > 8.00
17 | COc1ccc2c(NCc3ccc(B(O)O)cc3)ncnc2c1 [compound 30, 4-(((7-methoxyquinazolin-4-yl)amino)methyl)phenylboronic acid] | – | – | > 8.30
18 | COc1ccc2c(NCc3ccc(P(=O)(O)O)cc3)ncnc2c1 [compound 41, 4-(((7-methoxyquinazolin-4-yl)amino)methyl)phenylphosphonic acid formic acid salt] | – | – | > 8.30
